Source: patent publication US6974870B2, “Substituted 3-amino-thieno [2,3-b]pyridine-2-carboxylic acid amide compounds and processes for preparing and their uses” (Boehringer Ingelheim Phamaceuticals, Inc., priority 2002, dated 2005)

What follows are compounds tested against T1, human IKKβ (Homo sapiens, UniProt O14920) (assay: IKKβ kinase inhibition assay (phosphorylation of IκBα substrate, 33P-ATP)). Conditions: flag-tagged human IKKβ 0.9 μg/ml, GST-IκBα (1-54) 53 μg/ml, 250 nM ATP, 1 hour at 25° C.
T1 construct: FLAG (N)
T1 sequence (O14920 1-756): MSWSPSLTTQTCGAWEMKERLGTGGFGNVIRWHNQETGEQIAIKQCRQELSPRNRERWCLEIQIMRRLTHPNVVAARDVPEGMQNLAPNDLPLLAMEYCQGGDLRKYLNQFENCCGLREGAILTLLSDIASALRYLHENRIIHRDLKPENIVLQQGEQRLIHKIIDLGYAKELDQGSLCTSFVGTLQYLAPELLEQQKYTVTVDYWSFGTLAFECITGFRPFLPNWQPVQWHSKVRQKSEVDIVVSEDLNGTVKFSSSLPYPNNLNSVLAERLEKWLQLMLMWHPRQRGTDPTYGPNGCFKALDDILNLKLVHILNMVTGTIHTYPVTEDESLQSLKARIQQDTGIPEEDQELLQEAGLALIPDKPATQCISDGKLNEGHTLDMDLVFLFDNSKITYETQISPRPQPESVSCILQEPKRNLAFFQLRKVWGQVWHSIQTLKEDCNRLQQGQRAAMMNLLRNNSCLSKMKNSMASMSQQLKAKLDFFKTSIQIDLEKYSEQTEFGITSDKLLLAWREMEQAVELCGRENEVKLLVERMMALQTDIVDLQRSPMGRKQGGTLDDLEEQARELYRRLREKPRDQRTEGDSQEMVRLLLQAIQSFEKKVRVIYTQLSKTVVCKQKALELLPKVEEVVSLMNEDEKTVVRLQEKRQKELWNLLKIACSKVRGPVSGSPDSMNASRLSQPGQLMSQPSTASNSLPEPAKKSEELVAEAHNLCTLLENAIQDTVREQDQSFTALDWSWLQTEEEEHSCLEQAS
Format: biochemical
Experimental: The inhibition of IKKα and IKKβ by the compounds of the present invention was determined with the following assay that measures the phosphorylation of the IκBα substrate by the respective kinases. The enzymes used in the assay were N-terminally flag-tagged versions of the human IKKβ or IKKα and the substrate was a GST fusion protein with IκBα (amino acids 1-54).
The reaction mixtures (60 μl) contained 20 mM HEPES pH 7.5, 10 mM MgCl2, 2 mM MnCl2, 100 mM NaCl, 100 μM Na3VO4, 20 mM β-glycerophosphate, 1 mM DTT, 2% DMSO, 250 nM ATP, 0.4 nM [^33P]ATP (specific activity, 3000 Ci/mmol), IκBα substrate, IKK enzyme and test compound. The reaction mixtures contained either 3.6 μg/ml IKKα and 245 μg/ml IκBα or 0.9 μg/ml IKKβ and 53 μg/ml IκBα.
Reactions were initiated by adding a solution of IκBα substrate and ATP to polypropylene plates containing IKK enzyme that was pre-incubated for 5 minutes with test compound. Then the reaction mixtures were incubated for 1 hour at 25° C., placed on ice and quenched by the addition of 150 μl 10% trichloroacetic acid and 5% disodium pyrophosphate. After mixing, the entire contents of the quenched reaction mixtures were transferred to a pre-wetted Packard UniFilter filtration plate, aspirated and washed 6 times with 250 μl of ddH2O using the Packard Filtermate Harvester. Filtration plates were then air dried, supplemented with 40 μl of Microscint 20 scintillation fluid and the ^33P-labeled reaction products were quantified using the Packard TopCount scintillation counter.
Compounds were tested in three-fold serial dilutions and inhibitor concentrations to achieve 50% inhibition of enzyme activity (i.e., IC50) were derived from dose-reponse curves using SAS software (SAS Institute, Cary N.C.). A non-linear regression analysis based on the Hill equation was applied to the percent inhibition versus concentration data. In all cases, compound concentrations were verified by HPLC.

IC50, < 1000 nM:
CCCc1cc(N2CCC(NCC(O)COCc3ccccc3)CC2)nc2sc(C(N)=O)c(N)c12 (stereo not shown) [3-Amino-6-[4-(3-benzyloxy-2-hydroxy-propylamino)-piperidin-1-yl]-4-propyl-thieno[2,3-b] pyridine-2-carboxylic acid amide]
CCCc1cc(N2CCC(NC[C@@H](O)COc3ccccc3)CC2)nc2sc(C(N)=O)c(N)c12 [3-Amino-6-[4-((R)-2-hydroxy-3-phenoxy-propylamino)-piperidin-1-yl]-4-propyl-thieno[2,3-b] pyridine-2-carboxylic acid amide]
CCCc1cc(N2CCC(NC[C@H](O)COc3ccccc3)CC2)nc2sc(C(N)=O)c(N)c12 [3-Amino-6-[4-((S)-2-hydroxy-3-phenoxy-propylamino)-piperidin-1-yl]-4-propyl-thieno[2,3-b] pyridine-2-carboxylic acid amide]
CCCc1cc(N2CCC(NCCc3ccc(C(N)=O)cc3)CC2)nc2sc(C(N)=O)c(N)c12 [3-Amino-6-{4-[2-(4-carbamoyl-phenyl)-ethylamino]-piperidin-1-yl}-4-propyl-thieno[2,3-b] pyridine-2-carboxylic acid amide]
CCCc1cc(N2CCC(NCC(O)c3cccc(-c4ccccn4)c3)CC2)nc2sc(C(N)=O)c(N)c12 (stereo not shown) [3-Amino-6-{4-[2-hydroxy-2-(3-pyridin-2-yl-phenyl)-ethylamino]-piperidin-1-yl}-4-propyl-thieno[2,3-b] pyridine-2-carboxylic acid amide]
CCCc1cc(N2CCC(NCC(O)c3ccc(-c4cnccn4)cc3)CC2)nc2sc(C(N)=O)c(N)c12 (stereo not shown) [3-Amino-6-{4-[2-hydroxy-2-(4-pyrazin-2-yl-phenyl)-ethylamino]-piperidin-1-yl}-4-propyl-thieno[2,3-b] pyridine-2-carboxylic acid amide]
CCCc1cc(N2CCC(NCC(O)c3ccc(-c4ccccn4)cc3)CC2)nc2sc(C(N)=O)c(N)c12 (stereo not shown) [3-Amino-6-{4-[2-hydroxy-2-(4-pyridin-2-yl-phenyl)-ethylamino]-piperidin-1-yl}-4-propyl-thieno[2,3-b] pyridine-2-carboxylic acid amide]
NC(=O)c1sc2nc(N3CCC(NCC(O)c4ccc(-c5ccccn5)cc4)CC3)cc(C(F)(F)F)c2c1N (stereo not shown) [3-Amino-6-{4-[2-hydroxy-2-(4-pyridin-2-yl-phenyl)-ethylamino]-piperidin-1-yl}-4-trifluoromethyl-thieno[2,3-b]pyridine-2-carboxylic acid amide]
NC(=O)c1sc2nc(N3CCC(NCC(O)c4ccc(-c5cccnc5)cc4)CC3)cc(C(F)(F)F)c2c1N (stereo not shown) [3-Amino-6-{4-[2-hydroxy-2-(4-pyridin-3-yl-phenyl)-ethylamino]-piperidin-1-yl}-4-trifluoromethyl-thieno[2,3-b]pyridine-2-carboxylic acid amide]
CCCc1cc(N2CCC(NCC(O)c3ccc(-c4ccncc4)cc3)CC2)nc2sc(C(N)=O)c(N)c12 (stereo not shown) [3-Amino-6-{4-[2-hydroxy-2-(4-pyridin-4-yl-phenyl)-ethylamino]-piperidin-1-yl}-4-propyl-thieno[2,3-b] pyridine-2-carboxylic acid amide]
NC(=O)c1sc2nc(N3CCC(NCC(O)c4ccc(-c5ccncc5)cc4)CC3)cc(C(F)(F)F)c2c1N (stereo not shown) [3-Amino-6-{4-[2-hydroxy-2-(4-pyridin-4-yl-phenyl)-ethylamino]-piperidin-1-yl}-4-trifluoromethyl-thieno[2,3-b]pyridine-2-carboxylic acid amide]
CCCc1cc(N2CCC(NCC(O)c3ccc(-c4cncnc4)cc3)CC2)nc2sc(C(N)=O)c(N)c12 (stereo not shown) [3-Amino-6-{4-[2-hydroxy-2-(4-pyrimidin-5-yl-phenyl)-ethylamino]-piperidin-1-yl}-4-propyl-thieno[2,3-b] pyridine-2-carboxylic acid amide]
CCCc1cc(N2CCC(NCC(O)COc3cccc(OC)c3)CC2)nc2sc(C(N)=O)c(N)c12 (stereo not shown) [3-Amino-6-{4-[2-hydroxy-3-(3-methoxy-phenoxy)-propylamino]-piperidin-1-yl}-4-propyl-thieno[2,3-b] pyridine-2-carboxylic acid amide]
CCCc1cc(N2CCC(NCC(O)COc3ccc(C(F)(F)F)cc3)CC2)nc2sc(C(N)=O)c(N)c12 (stereo not shown) [3-Amino-6-{4-[2-hydroxy-3-(4-trifluoromethyl-phenoxy)-propylamino]-piperidin-1-yl}-4-propyl-thieno[2,3-b] pyridine-2-carboxylic acid amide]
CCCc1cc(N2CCC(NCC(O)COc3cccc4ccccc34)CC2)nc2sc(C(N)=O)c(N)c12 (stereo not shown) [3-Amino-6-{4-[2-hydroxy-3-(naphthalen-1-yloxy)-propylamino]-piperidin-1-yl}-4-propyl-thieno[2,3-b] pyridine-2-carboxylic acid amide]
CCCc1cc(N2CCC(NCC(O)COc3ccc4ccccc4c3)CC2)nc2sc(C(N)=O)c(N)c12 (stereo not shown) [3-Amino-6-{4-[2-hydroxy-3-(naphthalen-2-yloxy)-propylamino]-piperidin-1-yl}-4-propyl-thieno[2,3-b] pyridine-2-carboxylic acid amide]
CCCc1cc(N2CCC(NCC(O)Cc3cccc(C(N)=O)c3)CC2)nc2sc(C(N)=O)c(N)c12 (stereo not shown) [3-Amino-6-{4-[3-(3-carbamoyl-phenyl)-2-hydroxy-propylamino]-piperidin-1-yl}-4-propyl-thieno[2,3-b] pyridine-2-carboxylic acid amide]
CCCc1cc(N2CCC(NCC(O)CNc3cccc(C(N)=O)c3)CC2)nc2sc(C(N)=O)c(N)c12 (stereo not shown) [3-Amino-6-{4-[3-(3-carbamoyl-phenylamino)-2-hydroxy-propylamino]-piperidin-1-yl}-4-propyl-thieno[2,3-b] pyridine-2-carboxylic acid amide]
CCCc1cc(N2CCC(NCC(O)COc3cccc(C#N)c3)CC2)nc2sc(C(N)=O)c(N)c12 (stereo not shown) [3-Amino-6-{4-[3-(3-cyano-phenoxy)-2-hydroxy-propylamino]-piperidin-1-yl}-4-propyl-thieno[2,3-b] pyridine-2-carboxylic acid amide]
CCCc1cc(N2CCC(NCC(O)Cc3ccc(C(N)=O)cc3)CC2)nc2sc(C(N)=O)c(N)c12 (stereo not shown) [3-Amino-6-{4-[3-(4-carbamoyl-phenyl)-2-hydroxy-propylamino]-piperidin-1-yl}-4-propyl-thieno[2,3-b] pyridine-2-carboxylic acid amide]
CCCc1cc(N2CCC(NCC(O)COc3ccc(C#N)cc3)CC2)nc2sc(C(N)=O)c(N)c12 (stereo not shown) [3-Amino-6-{4-[3-(4-cyano-phenoxy)-2-hydroxy-propylamino]-piperidin-1-yl}-4-propyl-thieno[2,3-b] pyridine-2-carboxylic acid amide]
CCCc1cc(N2CCC(NCC(O)COc3ccc(F)cc3)CC2)nc2sc(C(N)=O)c(N)c12 (stereo not shown) [3-Amino-6-{4-[3-(4-fluoro-phenoxy)-2-hydroxy-propylamino]-piperidin-1-yl}-4-propyl-thieno[2,3-b] pyridine-2-carboxylic acid amide]
